Tests used:
Assay type in all cases: biochemical
[1] = molecular target: T1, S. pombe Lumazine Synthase (Schizosaccharomyces pombe, UniProt Q9UUB1); experiment: Lumazine synthase kinetic inhibition assay; details: recombinant S. pombe LS; for kcat (rate constant ES → E + P): fit of the compound's data set; for kcat (rate constant ES → E + P) / Kis (inhibitor dissociation constant, ES + I ⇌ ESI): pH 7.0; for Kis (inhibitor dissociation constant, ES + I ⇌ ESI): substrate 1 varied, 2 constant
T1 sequence (Q9UUB1 1-159): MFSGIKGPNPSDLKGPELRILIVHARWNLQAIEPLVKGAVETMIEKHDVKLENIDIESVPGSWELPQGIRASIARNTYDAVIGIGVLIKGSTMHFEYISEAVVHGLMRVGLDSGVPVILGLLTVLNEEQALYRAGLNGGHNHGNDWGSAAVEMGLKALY

[2] = molecular target: M. tuberculosis Lumazine Synthase (Mycobacterium tuberculosis, UniProt P9WHE9); details: recombinant M. tuberculosis LS; for kcat (rate constant ES → E + P): fit of the compound's data set; for kcat (rate constant ES → E + P) / Kis (inhibitor dissociation constant, ES + I ⇌ ESI): pH 7.0; for Kis (inhibitor dissociation constant, ES + I ⇌ ESI): substrate 1 varied, 2 constant
[3] = molecular target: E. coli Riboflavin Synthase (Escherichia coli, UniProt P0AFU8); experiment: Riboflavin synthase kinetic inhibition assay; details: recombinant E. coli RS; for kcat (rate constant ES → E + P): fit of the compound's data set; for kcat (rate constant ES → E + P) / Kis (inhibitor dissociation constant, ES + I ⇌ ESI): pH 7.0
Chain of E. coli Riboflavin Synthase (P0AFU8 whole entry): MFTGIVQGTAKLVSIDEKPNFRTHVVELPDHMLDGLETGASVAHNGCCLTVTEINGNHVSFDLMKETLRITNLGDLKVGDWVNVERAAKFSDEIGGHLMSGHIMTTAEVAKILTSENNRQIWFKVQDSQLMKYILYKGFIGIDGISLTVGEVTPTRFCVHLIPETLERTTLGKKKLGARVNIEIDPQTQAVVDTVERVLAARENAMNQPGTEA

Chain of M. tuberculosis Lumazine Synthase (P9WHE9 whole entry): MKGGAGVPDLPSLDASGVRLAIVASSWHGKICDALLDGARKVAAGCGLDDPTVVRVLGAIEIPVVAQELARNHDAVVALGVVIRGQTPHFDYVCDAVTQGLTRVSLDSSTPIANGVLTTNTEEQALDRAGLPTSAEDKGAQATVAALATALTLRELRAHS

O=c1[nH]c(/C=C/c2ccc3ccccc3c2)c([N+](=O)[O-])c(=O)[nH]1 [Compound 43, (E)-6-(2-(Naphthalene-2-yl)vinyl)-5-nitropyrimidine-2,4(1H,3H)-dione]
Mode of inhibition [1]: Mixed
kcat (rate constant ES → E + P) [1]: 0.043 ± 0.00033 s⁻¹
Kis (inhibitor dissociation constant, ES + I ⇌ ESI) [1]: 476 ± 89 µM
Mode of inhibition [2]: Partial
kcat (rate constant ES → E + P) [2]: 0.00617 ± 0.00017 s⁻¹
Kis (inhibitor dissociation constant, ES + I ⇌ ESI) [2]: 72 ± 31 µM
Mode of inhibition [3]: Uncompetitive
kcat (rate constant ES → E + P) [3]: 0.0553 ± 0.00083 s⁻¹
Kis (inhibitor dissociation constant, ES + I ⇌ ESI) [3]: 270 ± 32 µM

O=c1[nH]c(/C=C/c2cccc(O)c2)c([N+](=O)[O-])c(=O)[nH]1 [Compound 15, (E)-6-(3-Hydroxystyryl)-5-nitropyrimidine-2,4(1H,3H)-dione]
Inhibitory activity in words [1]: completely ineffective
Mode of inhibition [2]: Competitive
kcat (rate constant ES → E + P) [2]: 0.00383 ± 0.00017 s⁻¹
Inhibitory activity in words [3]: completely ineffective

O=c1[nH]c(/C=C/c2ccc[nH]2)c([N+](=O)[O-])c(=O)[nH]1 [Compound 40, (E)-5-Nitro-6-[2-(1H-pyrrol-2-yl)vinyl]pyrimidine-2,4(1H,3H)-dione]
Mode of inhibition [1]: Mixed
kcat (rate constant ES → E + P) [1]: 0.0173 ± 0.00017 s⁻¹
Kis (inhibitor dissociation constant, ES + I ⇌ ESI) [1]: 248 ± 67 µM
Mode of inhibition [2]: Partial
kcat (rate constant ES → E + P) [2]: 0.00633 ± 0.00017 s⁻¹
Kis (inhibitor dissociation constant, ES + I ⇌ ESI) [2]: 42 ± 12 µM
Mode of inhibition [3]: Mixed
kcat (rate constant ES → E + P) [3]: 0.06 ± 0.0017 s⁻¹
Kis (inhibitor dissociation constant, ES + I ⇌ ESI) [3]: 806 ± 401 µM

O=c1[nH]c(/C=C/C2C=Nc3ccccc32)c([N+](=O)[O-])c(=O)[nH]1 (stereo not shown) [Compound 44, (E)-6-(2-(3H-Indol-3-yl)vinyl)-5-nitropyrimidine-2,4(1H,3H)-dione]
Mode of inhibition [1]: Mixed
kcat (rate constant ES → E + P) [1]: 0.0327 ± 0.00067 s⁻¹
Kis (inhibitor dissociation constant, ES + I ⇌ ESI) [1]: 376 ± 127 µM
Mode of inhibition [2]: Mixed
kcat (rate constant ES → E + P) [2]: 0.00667 ± 0.00017 s⁻¹
Kis (inhibitor dissociation constant, ES + I ⇌ ESI) [2]: 488 ± 233 µM
Mode of inhibition [3]: Uncompetitive
kcat (rate constant ES → E + P) [3]: 0.0567 ± 0.00067 s⁻¹
Kis (inhibitor dissociation constant, ES + I ⇌ ESI) [3]: 426 ± 64 µM

O=C(O)c1ccc(/C=C/c2[nH]c(=O)[nH]c(=O)c2[N+](=O)[O-])c(O)c1 [Compound 37, (E)-3-Hydroxy-4-(2-(5-nitro-2,6-dioxo-1,2,3,6-tetrahydropyrimidine-4-yl)vinyl)benzoic Acid]
Mode of inhibition [1]: Mixed
kcat (rate constant ES → E + P) [1]: 0.0273 ± 0.00033 s⁻¹
Kis (inhibitor dissociation constant, ES + I ⇌ ESI) [1]: 921 ± 640 µM
Mode of inhibition [2]: Mixed
kcat (rate constant ES → E + P) [2]: 0.00667 ± 0.00017 s⁻¹
Kis (inhibitor dissociation constant, ES + I ⇌ ESI) [2]: 468 ± 113 µM

5-Amino-(2-hydroxy-2-phenethyl)pyrimidine-2,4-(1H,3H)-dione [Compound 50]
Mode of inhibition [3]: Uncompetitive
kcat (rate constant ES → E + P) [3]: 0.07 ± 0.0017 s⁻¹
Kis (inhibitor dissociation constant, ES + I ⇌ ESI) [3]: 788 ± 148 µM

COc1ccccc1/C=C/c1[nH]c(=O)[nH]c(=O)c1[N+](=O)[O-] [Compound 19, (E)-6-(2-Methoxystyryl)-5-nitropyrimidine-2,4(1H,3H)-dione]
Mode of inhibition [1]: Mixed
kcat (rate constant ES → E + P) [1]: 0.0285 ± 0.00017 s⁻¹
Kis (inhibitor dissociation constant, ES + I ⇌ ESI) [1]: 733 ± 227 µM
Mode of inhibition [2]: Partial
kcat (rate constant ES → E + P) [2]: 0.00537 ± 6.7e-05 s⁻¹
Kis (inhibitor dissociation constant, ES + I ⇌ ESI) [2]: 44 ± 10 µM

Reference: publication PMC2760403 (The Journal of organic chemistry, 2009)
